Assay results as given in publication PMC8248988, “A signal capture and proofreading mechanism for the KDEL-receptor explains selectivity and dynamic range in ER retrieval” (eLife, 2021).

Target: T1, human KDELR1 D50N/N54K/E117Q (Homo sapiens, UniProt P24390, D50N/E117Q/N54K)
T1 construct: expressed in transfected cells; host or cells: COS-7
Assay: ER retrieval assay, KDELR1 D50N/N54K/E117Q-GFP (K. lactis like)
Type: cell-based
Conditions: COS-7 cells
Description: To create KDELR1-GFP and KDELR2-GFP, the reading frames for Homo sapiens KDELR1 (Uniprot: P24390) and KDELR2 (Uniprot: P33947) were cloned into the pEF5/FRT low level mammalian expression vector with a C-terminal 20 amino acid linker made up of 5 copies of Gly-Ser-Ser-Ser followed by GFP. Specific point mutations were introduced using the Quickchange protocol (Stratagene) and are described in the key resources table and figures. To create the mScarlet-KDEL^sec ligand construct, mScarlet with an N-terminal hGH signal peptide and the 16 C-terminal residues of human BiP at its C-terminus, containing the KDEL signal, was cloned into the pcDNA3.1 vector. […] The Golgi marker protein TGN46 was detected by antibody (sheep anti-TGN46 AHP500G; AbD Serotec) and an Alexa 647 conjugated secondary anti-sheep secondary (A-21448, Invitrogen). In Figure 1d and e, endogenous KDELR was detected by antibody (mouse anti-KDELR ADI-VAA-PT048; Enzo Life Sciences) and Alexa 488 conjugated anti-mouse secondary antibody (A-21202, Invitrogen). For retrieval assays in other figures, KDELR-GFP fusion proteins were directly detected by fluorescence. The mScarlet-xDEL fusion proteins were directly detected by fluorescence. […] The fraction of KDEL receptor in the Golgi apparatus was calculated by dividing the Golgi signal by the total cell signal. […]

T1 sequence (P24390 whole entry D50N/N54K/E117Q): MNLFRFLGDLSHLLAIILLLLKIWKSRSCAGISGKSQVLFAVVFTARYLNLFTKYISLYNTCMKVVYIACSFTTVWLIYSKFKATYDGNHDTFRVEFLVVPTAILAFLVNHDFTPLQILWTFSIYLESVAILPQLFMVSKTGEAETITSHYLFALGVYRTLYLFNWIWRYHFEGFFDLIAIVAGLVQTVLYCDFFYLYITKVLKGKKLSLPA

ADEL [pcDNA3.1 hGHss-mScarlet-H. sapiens BiP639-654K651A (ADEL^SEC), secreted mScarlet fusion with human BiP C-terminus, ADEL signal]
ligand-induced receptor retrieval to the ER (in words): improved the response
